# US10086028B2, “Method for treating vascular inflammation, improving skin beauty and improving male sexual function using ginseng berry” (AMOREPACIFIC CORPORATION, priority 2007, dated 2018)
# What was measured:
# [1] = system: melanocytes (MeI-Ab cells); assay: Inhibition of melanin generation in mouse melanocytes; assay type: cell-based, C57BL/6 mouse; settings: added for 3 consecutive days; sample 10 μg/mL
# Description: Inhibition of melanin generation in mouse melanocytes was evaluated in order to confirm the effect of the ginseng berry extract of Example 1 of inhibiting melanin generation.
# First, melanocytes (MeI-Ab cells) derived from C57BL/6 mouse [Dooley, T. P. et al, Skin Pharmacol., 7, pp. 188-200] were cultured in Dulbecco's modified Eagle's medium (DMEM) containing 10% FBS, 100 nM 2-O-tetradecanoylphorbol-13-acetate and 1 nM cholera toxin under the condition of 37° C., 5% CO2. The cultured MeI-Ab cells were separated using 0.25% trypsin-EDTA, and cultured on a 24-well plate to a concentration of 10^5 cells/well. Starting from day 2, the ginseng berry extract of Example 1 (1 μg/mL, 10 μg/mL and 100 μg/mL), the ginseng berry saponin concentrate of Example 2 (10 μg/mL), the ginseng root extract of Comparative Example 1 (10 μg/mL) or ginsenosides Rg1, Rg2, Rh1 or Re (10 μg/mL) was added for 3 consecutive days. Hydroquinone (10 μg/mL) was used as a positive control substance. Then, after removing the medium and washing with PBS, the cells were dissolved with 1 N sodium hydroxide. Absorbance was measured at 400 nm, and melanin generation inhibition ratio was calculated by Equation 3.
# [2] = system: type I procollagen; assay: Type I procollagen assay in human fibroblasts (ELISA); assay type: cell-based; settings: 3rd day, sample 10 μg/mL
# Description: Human fibroblasts were cultured on a 12-well plate incubator to a concentration of 10^5 cells/well. Then, the medium was replaced by one including the ginseng berry extract of Example 1 (1 μg/mL and 10 μg/mL), the ginseng berry saponin concentrate of Example 2 (10 μg/mL), the ginseng root extract of Comparative Example 1 (10 μg/mL) or ginsenosides Rg1, Rg2, Rh1 or Re (10 μg/mL). 10 ng/mL transforming growth factor β (TGF-β) was used as a positive control substance.
# On the 3rd day of culturing, the cells were harvested and the quantity of produced type I procollagen was analyzed using ELISA. The result was calculated as a relative value with respect to the negative control group, which was not treated with a test substance.
# [3] = system: PGE2; assay: LPS-induced inflammatory factor PGE2 in mouse blood; assay type: in vivo; settings: mouse blood about 12 h after LPS, intra-abdominal
# Description: Based on the experimental result in the cell level, the effect of controlling vascular inflammation of the ginseng berry extract was tested in an animal model. Mice were grouped into a non-treated group, an LPS-induced group, a group treated with the ginseng berry extract of Example 1 (50 μg/mL and 100 μg/mL), a group treated with the ginseng berry saponin concentrate of Example 2 (100 μg/mL), a group treated with the ginseng root extract of Comparative Example 1 (100 μg/mL) and groups treated with ginsenosides Rg1, Rg2, Rh1 or Re (10 μg/mL and 20 μg/mL), with 5 mice per each group.
# 100 mg of each test substance per kg body weight of mouse, diluted in saline solution (0.9% NaCl), was intra-abdominally injected three times from day 1 through day 3. 2 hours after the injection on day 3, LPS diluted in saline solution (1 μg/mL) was injected intra-abdominally at a concentration of about 4 mg per kg body weight of mouse to induce inflammation by inflammatory factors (PGE2, TNF-α and IL1-β). After approximately 12 hours, the abdomen of the mouse was cut open, and blood was taken from the artery of the heart and stored at […]. The blood was kept at room temperature for 30 minutes and, after centrifuge at 4° C. and 3,000 rpm for 10 minutes, the supernatant was kept at −20° C. Then, the inflammatory factors PGE2, TNF-α and IL1-β were identified by western blotting. Measurement was made twice and the mean value was calculated. The result is shown in Table 4 and FIG. 9 (PGE2 (ng/mL)), Table 5 and FIG. 10 (TNF-α (ng/mL)), and Table 6 and FIG. 11 (IL1-β (pg/mL)).
# [4] = system: Cyclooxygenase-2 (COX-2); assay: Inhibition of UV-induced COX-2 biosynthesis in human fibroblasts (western blotting); assay type: cell-based; settings: UVA 15 J/cm^2, 2nd day, relative to UV control; sample 10 μg/mL
# Description: Human fibroblasts were cultured on a 12-well plate incubator to a concentration of 10^5 cells/well. Then, after irradiating UVA at 15 J/cm^2, the medium was replaced by one including the ginseng berry extract of Example 1 (0.1 μg/mL, 1 μg/mL and 10 μg/mL), the ginseng berry saponin concentrate of Example 2 (10 μg/mL), the ginseng root extract of Comparative Example 1 (0.1 μg/mL, 1 μg/mL and 10 μg/mL) or ginsenosides Rg1, Rg2, Rh1 or Re (10 μg/mL). On the 2nd day of culturing, the cells were harvested and the quantity of produced COX-2 was analyzed using western blotting. The result was calculated as a relative value with respect to the control group, which was irradiated with UV without treating with a test substance, using a densitometer.
# [5] = system: Tumor Necrosis Factor α (TNF-α); assay: Inhibition of UV-induced TNF-α biosynthesis in human keratinocytes (ELISA); assay type: cell-based; settings: UVB 30 mJ/cm^2, 6-24 hours, relative to UV control; sample 10 μg/mL
# Description: Human keratinocytes were cultured on a 12-well plate incubator to a concentration of 10^5 cells/well. Then, after irradiating UVB at 30 mJ/cm^2, the medium was replaced by one including the ginseng berry extract of Example 1 (0.1 μg/mL, 1 μg/mL and 10 μg/mL), the ginseng berry saponin concentrate of Example 2 (10 μg/mL), the ginseng root extract of Comparative Example 1 (0.1 μg/mL, 1 μg/mL and 10 μg/mL) or ginsenosides Rg1, Rg2, Rh1 or Re (10 μg/mL). After 6-24 hours of culturing, the cells were harvested and the quantity of TNF-α was analyzed using ELISA (Pharmingen 555212). The result was calculated as a relative value with respect to the control group, which was irradiated with UV without treating with a test substance.
# [6] = system: matrix metalloproteinase I (MMP-1); assay: Inhibition of UVB-induced MMP-1 expression in human fibroblasts (ELISA); assay type: cell-based; settings: UVB 40 mJ/cm^2, 2nd day, relative to UV control; sample 10 μg/mL
# Description: Human fibroblasts were cultured on a 12-well plate incubator to a concentration of 10^5 cells/well. Then, after irradiating UVB at 40 mJ/cm^2, the medium was replaced by one including the ginseng berry extract of Example 1 (1 μg/mL and 10 μg/mL), the ginseng berry saponin concentrate of Example 2 (10 μg/mL), the ginseng root extract of Comparative Example 1 (10 μg/mL) or ginsenosides Rg1, Rg2, Rh1 or Re (10 μg/mL). 10 ng/mL TGF-β was used as a positive control substance. On the 2nd day of culturing, the cells were harvested and the quantity of produced matrix metalloproteinase I (MMP-1) was analyzed using ELISA. The result was calculated as a relative value with respect to the control group, which was irradiated with UV without treating with a test substance.
SMILES,Melanin generation inhibition ratio (%) [1] [%],Procollagen activity relative to negative control (%) [2] [%],"PGE2, Mean ± standard deviation ([3]; group (10 μg/mL)) [ng/mL]","PGE2, Result 1 ([3]; group (10 μg/mL)) [ng/mL]","PGE2, Result 2 ([3]; group (10 μg/mL)) [ng/mL]","PGE2, Mean ± standard deviation ([3]; group (20 μg/mL)) [ng/mL]","PGE2, Result 1 ([3]; group (20 μg/mL)) [ng/mL]","PGE2, Result 2 ([3]; group (20 μg/mL)) [ng/mL]",COX-2 biosynthesis (%) [4] [%],TNF-α biosynthesis (%) [5] [%],MMP-1 expression (%) [6] [%]
CC(C)=CCC[C@](C)(O[C@@H]1O[C@H](CO)[C@@H](O)[C@H](O)[C@H]1O)[C@H]1CC[C@]2(C)[C@@H]1[C@H](O)C[C@@H]1[C@@]3(C)CC[C@H](O)C(C)(C)[C@@H]3[C@@H](O[C@@H]3O[C@H](CO)[C@@H](O)[C@H](O)[C@H]3O)C[C@]12C [Rg1],1,105,6.32 ± 0.04,6.29,6.35,6.26 ± 0.07,6.31,6.21,95,98,98
CC(C)=CCC[C@](C)(O)[C@H]1CC[C@]2(C)[C@@H]1[C@H](O)C[C@@H]1[C@@]3(C)CC[C@H](O)C(C)(C)[C@@H]3[C@@H](O[C@@H]3O[C@H](CO)[C@@H](O)[C@H](O)[C@H]3O[C@@H]3O[C@@H](C)[C@H](O)[C@@H](O)[C@H]3O)C[C@]12C [Rg2],0,110,6.15 ± 0.21,6,6.3,6.09 ± 0.09,6.15,6.02,97,101,90
CC(C)=CCC[C@](C)(O)[C@H]1CC[C@]2(C)[C@@H]1[C@H](O)C[C@@H]1[C@@]3(C)CC[C@H](O)C(C)(C)[C@@H]3[C@@H](O[C@@H]3O[C@H](CO)[C@@H](O)[C@H](O)[C@H]3O)C[C@]12C [Rh1],2,105,6.13 ± 0.04,6.15,6.1,5.46 ± 0.20,5.6,5.32,99,98,90
